Literature values as cited in patent publication US20020032197A1 (priority 1998, published 2002).

How the values were obtained:
young healthy adults = settings: 5 mg dose
individuals with RSBD = settings: in vivo
[1] = tested on: healthy volunteers exposed to an acute nociceptive stimulus; settings: single oral dosing, 10 healthy volunteers
women with PMS = settings: in vivo
[2] = doses as high as 600 mg daily
MAO-A [3] = target: T1, MAO-A (Homo sapiens, UniProt P21397)
T1 sequence (P21397 1-527): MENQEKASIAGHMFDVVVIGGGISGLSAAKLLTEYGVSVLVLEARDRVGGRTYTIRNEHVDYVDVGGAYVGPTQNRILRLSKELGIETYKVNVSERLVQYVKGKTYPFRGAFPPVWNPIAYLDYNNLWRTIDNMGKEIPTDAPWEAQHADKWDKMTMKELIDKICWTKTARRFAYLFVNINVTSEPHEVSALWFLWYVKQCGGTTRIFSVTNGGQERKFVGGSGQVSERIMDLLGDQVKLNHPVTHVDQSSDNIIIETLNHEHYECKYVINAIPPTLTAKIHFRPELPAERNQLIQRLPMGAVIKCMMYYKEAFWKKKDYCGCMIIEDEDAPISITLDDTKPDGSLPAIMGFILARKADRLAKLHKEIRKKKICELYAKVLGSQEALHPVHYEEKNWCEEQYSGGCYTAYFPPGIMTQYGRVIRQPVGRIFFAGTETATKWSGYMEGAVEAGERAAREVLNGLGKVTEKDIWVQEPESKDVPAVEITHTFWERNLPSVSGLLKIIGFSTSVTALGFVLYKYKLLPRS

adrenergic receptors = settings: in vitro
opioid receptors = settings: in vitro
benzodiazepine receptors = settings: in vitro
dopaminergic receptors = settings: in vitro
MAO-A [4] = target: T1, MAO-A; settings: ex vivo
monoamine metabolism = settings: humans
[5] = tested on: sleep of healthy volunteers
MAO-A [6] = target: T1, MAO-A; remark: listed apart in the source
[7] = fluoxetine, bupropion and placebo compared

For COc1ccc2[nH]cc(CCNC(C)=O)c2c1 [Melatonin], the “sleep propensity and duration of sleep” value (young healthy adults) is given as “increased sleep propensity and the duration of sleep”.

In the case of CC(NC(C)(C)C)C(=O)c1cccc(Cl)c1 (stereo not shown) [bupropion], the “efficacy and patient satisfaction in women with PMDD” value (women with PMDD; [7]) is given as “some improvement”.

In the case of O=C1CN=C(c2ccccc2Cl)c2cc([N+](=O)[O-])ccc2N1 [clonazepam], the “cases of RSBD in which effective” value (individuals with RSBD) is listed as “approximately 90%”.

For CNCCCN1c2ccccc2CCc2ccccc21 [desipramine], the antinociceptive effect [1] is listed as “antinociceptive effect”.

In the case of CNCCC(Oc1ccc(C(F)(F)F)cc1)c1ccccc1 (stereo not shown) [fluoxetine], the “treatment of a range of symptoms in women with PMS” value (women with PMS) is listed as “effective and well-tolerated”, the “efficacy and patient satisfaction in women with PMDD” value (women with PMDD; [7]) is listed as “greater” and the “tolerability in women with PMDD” value (women with PMDD; [7]) is listed as “well tolerated”.

In the case of COCCCC/C(=N\OCCN)c1ccc(C(F)(F)F)cc1 [fluvoxamine], the antinociceptive effect [1] is given as “antinociceptive effect”.

For O=C(NCCN1CCOCC1)c1ccc(Cl)cc1 [moclobemide, p-chloro-N-(2-morpholinoethyl)-benzamide], the antinociceptive effect [1] is given as “antinociceptive effect”, the tolerability [2] is given as “well-tolerated” and the “in vitro binding to MAO-A” value (MAO-A [3]) is given as “weak”. The “affinity for adrenergic receptors” value (adrenergic receptors) was “no appreciable affinity”, the “affinity for opioid receptors” value (opioid receptors) was “no appreciable affinity” and the “affinity for benzodiazepine receptors” value (benzodiazepine receptors) was “no appreciable affinity”. For the same compound, the “affinity for dopaminergic receptors” value (dopaminergic receptors) was “no appreciable affinity”, the “time to recovery of enzyme activity (reversible binding)” value (MAO-A [4]) was no more than 16 h and the “plasma levels of homovanillic acid, 3,4-dihydroxyphenylacetic acid, 3-methoxy-4-hydroxyphenylglycol and 5-hydroxyindoleacetic acid” value (monoamine metabolism) was “reductions”. The bioavailability (after multiple administrations) was “approx. 85%”, the “number of different metabolites” value (in vivo) was “at least 19” and the elimination (patients with hepatic dysfunction) was “impaired”. For the same compound, the absorption (single-dose oral administration) was “almost completely absorbed” and the “effects on sleep in comparison to other MAO inhibitors” value [5] was “weak”.

For O=C(NCC[N+]1([O-])CCOCC1)c1ccc(Cl)cc1 [moclobemide-N-oxide, p-chloro-N-(2-morpholinoethyl)-benzamide-N′-oxide], the MAO-A inhibitory activity (MAO-A [6]) is listed as “MAO-A inhibitory activity”.

For NNCCc1ccccc1 [phenelzine], the “reduction of PTSD symptoms versus placebo” value (PTSD patients; Frank et al.) is listed as “superior to placebo”, the PTSD patients helped (PTSD patients; open trial (Davidson et al.)) is listed as 8 of 11 and the “response of patients with traumatic war neuroses” value (PTSD patients; open trial, 5 patients, after failing antipsychotics, tricyclics and psychotherapy) is listed as “responded positively”. For the same compound, the “clinical improvement in PTSD patients” value (PTSD patients; treated openly for 4 to 18 weeks (Lerer et al.)) was “only modest clinical improvement”.

In the case of CN[C@H]1CC[C@@H](c2ccc(Cl)c(Cl)c2)c2ccccc21 [sertraline], the “treatment of PMDD, symptomatic improvement and change in reported functional impairment” value (women with PMDD; versus placebo) is given as “significantly better than placebo”.
